Read-outs that look alike come from different tables or passages of the source.
Legend:
[1] = test system: rabbit platelet-rich plasma (collagen-induced platelet aggregation); experiment: Inhibition of collagen-induced platelet aggregation in rabbit platelet-rich plasma; type: cell-based; settings: 3 minute incubation; for inhibition at 100 µM / inhibition at 10 µM: Oryctolagus cuniculus, Platelet, 0.05 h; for inhibition at 10 µM: compound 10^-5 M
[2] = test system: rabbit platelet-rich plasma (ADP-induced platelet aggregation); experiment: Inhibition of 10^-5 M ADP-induced platelet aggregation in rabbit platelet-rich plasma; type: cell-based; settings: for inhibition at 100 µM / inhibition at 10 µM: Oryctolagus cuniculus, Platelet, 0.05 h; for inhibition at 100 µM: read-out: Inhibition (%) 10^-5 M ADP-Induced Aggregation; for inhibition at 10 µM: compound 10^-5 M
platelet aggregation = settings: cited from earlier work
pKa = type: physicochemical
[3] = test system: platelet-rich plasma (platelet aggregation); experiment: Persistence of platelet aggregation inhibitory activity on incubation with platelet-rich plasma; type: cell-based, rabbit
Protocol: The platelet aggregation inhibitory activity of representative compounds of the formula (I) were determined in terms of the percent inhibitory activity against 10-^5 M adenosine-5'-diphosphate (hereinafter referred to as "ADP")-induced or collagen-induced platelet aggregation in rabbit platelet-rich plasma according to the procedure described by G. V. R. Born and M. J. Cross in Journal of Physiology, Vol. 168, p. 178 (1963). […]

[4] = compound 10^-4 M, solvent PSS, 3 minute incubation
[5] = J. Med. Chem., Vol. 16, No. 12, 1381-1388 (1973)
[6] = compound 10^-4 M, solvent DMSO, 3 minute incubation
[7] = solvent DMSO, 3 minute incubation

| Structure (SMILES) | inhibition at 100 µM ([1]; compound 10^-4 M, solvent PSS) | inhibition at 100 µM [2, 4] | inhibition at 100 µM ([1]; compound 10^-4 M, solvent DMSO) | inhibition at 100 µM [2, 6] | other results |
| --- | --- | --- | --- | --- | --- |
| Nc1nc(Sc2cccnc2)nc2c1ncn2[C@@H]1O[C@H](CO)[C@@H](O)[C@H]1O [2-(β-Pyridyl)thioadenosine] | – | – | – | – | Inhibition (%) Collagen-Induced Aggregation ([1]; compound 10^-4 M, solvent PSS): 52%; Inhibition (%) 10^-5 M ADP-Induced Aggregation [2, 4]: 61% |
| CSc1nc(N)c2ncn([C@@H]3O[C@H](COP(=O)(O)O)[C@@H](O)[C@H]3O)c2n1 [Ammonium 2-Methylthioadenosine-5'-monophosphate, reference compound] | – | – | – | – | inhibition at 100 µM [2]: 35% |
| Nc1nc(S)nc2c1ncn2[C@@H]1O[C@H](CO)[C@@H](O)[C@H]1O [2-Thioadenosine] | 36% | 10% | – | – | inhibitory activity in ADP-induced platelet aggregation (platelet aggregation; [5]): only a weak inhibitory activity; inhibitory activity in collagen-induced platelet aggregation (platelet aggregation; [5]): only a weak inhibitory activity; pKa (pKa): 7.8 |
| Nc1ncnc2c1ncn2[C@@H]1O[C@H](CO)[C@@H](O)[C@H]1O [Adenosine] | 71% | 80% | 68% | 76% | inhibitory activity after 60 minutes of incubation with the platelet-rich plasma ([3]; 60 minutes of incubation): disappears completely after 60 minutes of incubation; inhibitory activity (control) ([3]; in words, from Table 1): fairly potent inhibitory activity; inhibition at 10 µM ([1]; solvent PSS): 51%; inhibition at 10 µM ([2]; solvent PSS, 3 minute incubation): 58% |
| Nc1nc(Sc2ccccc2)nc2c1ncn2[C@@H]1O[C@H](CO)[C@@H](O)[C@H]1O [2-Phenylthioadenosine] | – | – | 82% | 98% | inhibition at 10 µM ([1]; solvent DMSO): 58%; inhibition at 10 µM [2, 7]: 62% |
| CSc1nc(N)c2ncn([C@@H]3O[C@H](COP(=O)(O)O)[C@@H](O)[C@H]3O)c2n1 [2-methylthioadenosine-5'-monophosphate] | – | – | – | – | platelet aggregation inhibitory activity (prior art) (platelet aggregation; in words): only a weak platelet aggregation inhibitory activity |
| CSc1nc(N)c2ncn([C@@H]3O[C@H](CO)[C@@H](O)[C@H]3O)c2n1 [2-Methylthioadenosine, reference compound] | 25% | 12% | – | – | – |
| Nc1nc(Sc2ccc([N+](=O)[O-])cc2)nc2c1ncn2[C@@H]1O[C@H](CO)[C@@H](O)[C@H]1O [2-(p-Nitrophenyl)thioadenosine] | – | – | 81% | 92% | – |
| Nc1ncnc2c1ncn2[C@@H]1O[C@H](COP(=O)(O)O)[C@@H](O)[C@H]1O [Ammonium Adenosine-5'-monophosphate, reference compound] | – | 5% | – | – | – |
| Cc1ccccc1Sc1nc(N)c2ncn([C@@H]3O[C@H](CO)[C@@H](O)[C@H]3O)c2n1 [2-(o-Tolyl)thioadenosine] | – | – | – | – | inhibition at 10 µM ([1]; solvent DMSO): 57%; inhibition at 10 µM [2, 7]: 61% |
| Nc1nc(SCCO)nc2c1ncn2[C@@H]1O[C@H](CO)[C@@H](O)[C@H]1O [2-(β-Hydroxyethyl)thioadenosine] | 30% | 52% | – | – | – |
| Nc1nc(SC2C3CC4CC(C3)CC2C4)nc2c1ncn2[C@@H]1O[C@H](CO)[C@@H](O)[C@H]1O (stereo partly drawn) [2-(β-Adamantyl)thioadenosine] | – | – | 72% | 95% | inhibition at 10 µM ([1]; solvent DMSO): 61%; inhibition at 10 µM [2, 7]: 72% |
| Nc1nc(SC2CC3CCC2C3)nc2c1ncn2[C@@H]1O[C@H](CO)[C@@H](O)[C@H]1O (stereo partly drawn) [2-(β-Norbornyl)thioadenosine] | – | – | 69% | 89% | inhibition at 10 µM ([1]; solvent DMSO): 51%; inhibition at 10 µM [2, 7]: 62% |
| CCCSc1nc(N)c2ncn([C@@H]3O[C@H](CO)[C@@H](O)[C@H]3O)c2n1 [2-Propylthioadenosine, reference compound] | – | 16% | – | – | – |
| Nc1nc(SCCCO)nc2c1ncn2[C@@H]1O[C@H](CO)[C@@H](O)[C@H]1O [2-(γ-Hydroxypropyl)thioadenosine] | 52% | 58% | – | – | – |
